The conditions of series [1]: reported value; cited from earlier work.
The nature of another series: pKa of lipid headgroups. In kind it is physicochemical. The settings on record: lowest value that arranges all release-rate data points in a straight line. Here is the method: The Zeta potential of liposomes containing different fractions of the titratable domain-forming lipid DSPA was measured in phosphate buffer at different pH values (7.4, 5.5, and 4.0) using a Zetasizer ZS90 (Malvern instruments, Worcestershire, UK). Measurements were performed in 10 mM PBS with no salt. For these measurements, liposomes (1 mM total lipid) were prepared without grafted PEG-chains on their surface to allow for closer approach of the plane of shear to the physical surface of lipid membranes.
For all lipid fractions, the rate of content release attributed to discontinuities at the interfacial boundaries is linearly proportional to the square root of protonated DSPA lipids and therefore proportional to the total perimeter of the discontinuities' interface (open symbols).
This deviation of the pKa value can be attributed to several factors. First, the proposed model of small, circular domains is certainly an oversimplification. Second, because the apparent pKa of PA should depend on the surface charge density, the values of apparent pKa should be composition-dependent.

The values below come from patent US20100129430A1, “LIPOSOME DRUG CARRIERS WITH PH-SENSITIVITY” (priority 2008, published 2010).

By pKa is commonly meant the pH at which an ionisable group is half protonated.

Regarding phosphatidic acid, in series [1], the pKa was 4.0. The “pKa used to calculate the fraction of protonated DSPA lipids” value in “pKa of lipid headgroups” was 4.5.
